Assays:
[1] = system: Chardonnay vine plants; experiment: Frost-resistance of young vine plants, Chardonnay (foliar spraying, cold stress, foliar necroses); format: in vivo
Method: (§1) Plants originating from different vine varieties: the Chardonnay and Cabernet-Sauvignon varieties are used. Each sample, composed of 5 to 21 plants, is treated by foliar spraying at different vegetative stages on the BBCH scale with a mixture containing the xyloglucan elicitor, heptasaccharide XFGol or heptamaloxyloglucan, in solution at variable doses combined or not combined with sorbitol; the spraying of 2.5 ml of solution per plant is carried out using a sprayer (deviation of +/−1%). After use of the elicitor, the plants were exposed to cold stress of variable intensity and duration. After exposure to the cold, the plants are placed in a climatic chamber at 20° C. with a 12-hour day/night alternation. The appearance of the leaves is observed 24 hours and 72 hours after removal from the cold. The effects of the cold are evaluated by observing the foliar necroses induced by frost and the plants are kept for several months in order to monitor their subsequent development. The results are expressed by the protection index c (%)=100−P; P, being the proportion of foliar necroses. The results are also expressed in gain: [formula]

[2] = system: Cabernet-Sauvignon vine plants; experiment: Frost-resistance of young vine plants, Cabernet-Sauvignon (foliar spraying, cold stress, foliar necroses); format: in vivo
Method: as §1

Row | SMILES | If % average (protection index) ([1]; all physiological stages combined, 5 nM elicitor) [%] | Gain % ([1]; all physiological stages combined, 5 nM elicitor, vs dry control) [%] | Gain % ([2]; Cabernet-Sauvignon second series, 500 nM elicitor, vs dry control) [%] | If % average (protection index) ([2]; Cabernet-Sauvignon second series, all physiological stages combined, 500 nM elicitor) [%] | effect of sorbitol on frost protection ([1]; 0.1% sorbitol, when the elicitor itself has no effect) | effect of sorbitol on frost protection ([2]; Cabernet-Sauvignon, 0.1% sorbitol, when the elicitor itself has no effect)
1 | CC1OC(OC2C(OC3C(OCC4OC(OC(C(O)CO)C(O)C(O)CO)C(O)C(O)C4OC4OC(COC5OCC(O)C(O)C5O)C(O)C(O)C4O)OCC(O)C3O)OC(CO)C(O)C2O)C(O)C(O)C1O (stereo not drawn) [Elicitor, heptamaloxyloglucan] | 40 | 0 | 200 | 60 |  | 
2 | OC[C@@H](O)[C@@H](O)[C@H](O)[C@@H](O)CO [sorbitol] |  |  |  |  | without effect | without effect

From US8455461B2, “Compositions containing a synergic mixture of polyols and xyloglucanes as phytosanitary and bio-fertilising products” (Elicityl, priority 2007, dated 2013)
